In ChEMBL document CHEMBL4420060, “Combinatorial therapies for the treatment of neoplasias using the opioid growth factor receptor” (2013):
The source made the active and inactive calls. The calls are words filed in the database; no cut-off is given here.

Experiments:
[1] = system: MIA PaCa-2; test: Growth inhibition of human MIAPaCa2 cells assessed as decrease in cell number at 0.01 uM in presence of 1 uM OGF incubated for 48 hrs followed by compound wash out by 50% replacement of media and measured after 48 hrs by MTS assay relative to control; type: functional, cell-based
[2] = system: Mus musculus; test: Effect on plasma OGF level in athymic BALB/c nu/nu nude mouse xenografted with MIAPaCa2 cells at 120 mg/kg dosed every 3 days and co-treated with 10 mg/kg OGF by radioimmunoassay; type: functional, organism-based
[3] = system: MIA PaCa-2; test: Antitumor activity against human MIAPaCa2 cells xenografted in athymic BALB/c nu/nu nude mouse assessed as latency time for measurable tumor at 10 mg/kg dosed daily measured on day 10 after tumor cell inoculation (reference value: 13.2 +/- 1.8 days); type: functional
[4] = system: MIA PaCa-2; test: Growth inhibition of human MIAPaCa2 cells assessed as decrease in cell number at 0.01 uM incubated for 48 hrs in presence of 1 uM OGF by MTS assay relative to control; type: functional
[5] = system: MIA PaCa-2; test: Antitumor activity against human MIAPaCa2 cells xenografted in athymic BALB/c nu/nu nude mouse assessed as reduction in tumor volume at 120 mg/kg dosed every 3 days and co-treated with 10 mg/kg OGF measured on day 45 after tumor cell inoculation; type: functional; design: scale not given: the % may be the effect or the level left
[6] = system: UMSCC1; test: Antitumor activity against human UM-SCC-1 cells xenografted in nu/nu mouse assessed as reduction in tumor measured on 4 to 36 day of measurable tumors at 120 mg/kg dosed every 3 days and co-treated with 10 mg/kg OGF relative to control; type: functional, organism-based
[7] = system: MIA PaCa-2; test: Antitumor activity against human MIAPaCa2 cells xenografted in athymic BALB/c nu/nu nude mouse assessed tumor volume at 10 mg/kg dosed daily measured on day 45 after tumor cell inoculation (reference value: 8935 +/- 1694 mm3); type: functional
[8] = system: MIA PaCa-2; test: Growth inhibition of human MIAPaCa2 cells assessed as decrease in cell number at 0.01 uM incubated for 96 hrs in presence of 1 uM opioid antagonist naloxone by MTS assay relative to control; type: functional, cell-based
[9] = system: MIA PaCa-2; test: Growth inhibition of human MIAPaCa2 cells assessed as decrease in cell number at 0.01 uM incubated for 72 hrs in presence of 1 uM OGF by trypan blue staining assay relative to control; type: functional
[10] = system: MIA PaCa-2; test: Antitumor activity against human MIAPaCa2 cells xenografted in athymic BALB/c nu/nu nude mouse assessed spleen weight at 120 mg/kg dosed every 3 days and co-treated with 10 mg/kg OGF measured on day 45 after tumor cell inoculation (reference value: 761 +/- 61 mg); type: functional

Nc1ccn([C@@H]2O[C@H](CO)[C@@H](O)C2(F)F)c(=O)n1 [GEMCITABINE]
growth inhibition (GI) [1]: Active
Activity [2]: inactive
Time [3]: 14.2 days
growth inhibition (GI) [4]: 26%
Activity [5]: 83%
Activity [6]: Active
Activity [7]: 4849 mm3
growth inhibition (GI) [8]: Active
growth inhibition (GI) [9]: 49.2%
Activity [10]: 437 mg
